Results: the OligoGym collection
“And” between values parts separate entries of the source, which are not always exact repeats. Equal entries are not always repeated. After the bases stand the sugars from the 5' end (letter, count) and the backbone: PS all phosphorothioate, else s phosphorothioate and o phosphodiester by linkage. Methylation of C is not given here. e = 2'-O-(2-methoxyethyl) (MOE); k = constrained ethyl (cEt); d = 2'-deoxy (DNA)

Molecular target: IRF4
Settings: ASO

Row | Sequence | target mRNA inhibition (MM.1R, 1 µM) | target mRNA inhibition (SK-MEL-28, 4 µM) [%] | further results
1 | AGCATCACTATTAAGA (sugars k3 d10 k3, PS) | 10% | 72 | target mRNA inhibition (MM.1R, 0.0625 µM): -5%; target mRNA inhibition (MM.1R, 0.074 µM): 2%; target mRNA inhibition (MM.1R, 0.222 µM): 10%; target mRNA inhibition (MM.1R, 0.25 µM): 1%; target mRNA inhibition (MM.1R, 0.666 µM): 10%; target mRNA inhibition (MM.1R, 2 µM): 11%; target mRNA inhibition (MM.1R, 4 µM): 26%
2 | TGATGTGATAGCTGAG (sugars kkdddddddddkekek, PS) | -2% |  | 
3 | AGCATCCGCTTGGAGA (sugars k3 d10 k3, PS) |  | 37 | 
4 | TGCTGAACCCCACAGG (sugars k3 d10 k3, PS) |  | 33 | 
5 | ACTTAACCCACATCAC (sugars k3 d10 k3, PS) |  | -22 | 
6 | AAATGAGTCGGTCACT (sugars k3 d10 k3, PS) |  | 55 | 
7 | CTAACAGATAACGAGG (sugars k3 d10 k3, PS) |  | 23 | 
8 | GAAATGTGTTGGAAGA (sugars k3 d10 k3, PS) |  | 68 | 
9 | AACGAGGTAAATCTTC (sugars k3 d10 k3, PS) |  | 51 | 
10 | GGGTCCTACCTGCTGG (sugars k3 d10 k3, PS) |  | 36 | 
11 | TGGGACATTGGTACGG (sugars k3 d10 k3, PS) |  | 69 | target mRNA inhibition (MM.1R, 0.074 µM): 4%; target mRNA inhibition (MM.1R, 0.222 µM): 2%; target mRNA inhibition (MM.1R, 0.666 µM): 13%; target mRNA inhibition (MM.1R, 2 µM): 34%
12 | GTTAAGTACTTGGACA (sugars k3 d10 k3, PS) |  | 32 | 
13 | GGTTGGCTGGTCTTTG (sugars kdddddddddkekeke, PS) | 26% |  | 
14 | CTACTATTGTGGAAAA (sugars k3 d10 k3, PS) |  | 3 | 
15 | AAAATATCGCCCATGA (sugars k3 d10 k3, PS) |  | 41 | 
16 | TATCAGATACACACCC (sugars k3 d10 k3, PS) |  | 19 | 
17 | ACTAATACCTACCTGC (sugars k3 d10 k3, PS) |  | 48 | 
18 | GGCACATCAATGTTTT (sugars k2 d9 e3 k2, PS) | 22% and 36% |  | 
19 | TATGAGAAACGGCCTG (sugars k3 d10 k3, PS) |  | 45 | 
20 | CTTAAGCAAGTGGAGG (sugars k3 d10 k3, PS) |  | 70 | 
21 | CCCCGAGCTGCACACG (sugars k3 d10 k3, PS) | -5% |  | 
22 | TATAGAATTAGGTGCT (sugars k3 d10 k3, PS) |  | 40 | 
23 | ATTATATACTGGTTGG (sugars kkdddddddddkekek, PS) | 52% |  | 
24 | GGCCAACGACTCCACA (sugars k3 d10 k3, PS) |  | 23 | 

Row | Sequence | target mRNA inhibition (MM.1R, 1 µM) | target mRNA inhibition (SK-MEL-28, 4 µM) [%] | further results
25 | CATGGGACATTGGTAC (sugars k3 d10 k3, PS) | 18% |  | 
26 | ATCTAAGGCAAGCTGA (sugars k3 d10 k3, PS) |  | 37 | 
27 | TATAGCACTCTCCTAT (sugars k3 d10 k3, PS) |  | 2 | 
28 | CGGTCAGCAGAACCAC (sugars k3 d10 k3, PS) | -8% |  | 
29 | ACGGAAGTTTACACTG (sugars kddddddddddkekek, PS) | 7% |  | 
30 | AGCATTTTATCATCCG (sugars k2 d9 e3 k2, PS) | 28% |  | 
31 | GGAGTAATAGTAAATA (sugars k3 d10 k3, PS) |  | 36 | 
32 | GTTGGCTGGTCTTTGT (sugars k3 d10 k3, PS) | 63% |  | 
33 | GAACCTGCTGGGCTGG (sugars k3 d10 k3, PS) |  | 36 | 
34 | GAGGGTCAAAAAGATG (sugars k3 d10 k3, PS) |  | 33 | 
35 | ATTATATACTGGTTGG (sugars k3 d10 k3, PS) | 39% and 57% |  | target mRNA inhibition (MM.1R, 0.0625 µM): 3% and 9%; target mRNA inhibition (MM.1R, 0.25 µM): 15% and 25%; target mRNA inhibition (MM.1R, 4 µM): 77% and 74%
36 | ATTCAGGAGAGCCCCT (sugars k3 d10 k3, PS) | -15% |  | 
37 | GGAAGTTTACACTGGA (sugars k2 d9 e3 k2, PS) | 47% |  | 
38 | GGCAAATTAATGCTTC (sugars k3 d10 k3, PS) |  | 76 | target mRNA inhibition (MM.1R, 0.0625 µM): -5% and 17%; target mRNA inhibition (MM.1R, 0.074 µM): -9%; target mRNA inhibition (MM.1R, 0.222 µM): -33%; target mRNA inhibition (MM.1R, 0.25 µM): -11% and 5%; target mRNA inhibition (MM.1R, 0.666 µM): 7%; target mRNA inhibition (MM.1R, 2 µM): -5%
39 | TGGTGGGTCCTGGCAG (sugars k3 d10 k3, PS) |  | 23 | 
40 | GTATACCAACGACAGC (sugars k3 d10 k3, PS) |  | 78 | 
41 | GAAGGGAACAGATAGT (sugars k3 d10 k3, PS) |  | 17 | 
42 | AAAGAGCTGGTAGGTC (sugars k3 d10 k3, PS) | -35% |  | 
43 | CTGTGTAATGTAGGGA (sugars k3 d10 k3, PS) |  | 42 | 
44 | CAGCAAAACGCAGAGC (sugars k3 d10 k3, PS) |  | 54 | 
45 | AATTCTCCTATGCTGA (sugars k3 d10 k3, PS) |  | 13 | 
46 | GGAAGTTTACACTGGA (sugars kdddddddddkekeke, PS) | 32% |  | 
47 | GTAGTATGAGAAACGG (sugars kdddddddddkekeke, PS) | 28% |  | 
